Literature values as cited in publication PMC11938273 (Journal of Chemical Information and Modeling, 2025).
Structures can show the parent of a compound that is named as a salt.

Details: in vivo; cited from earlier work

Compound | CNS status
COC(=O)[C@H]1[C@@H](c2ccc(F)cc2)C[C@@H]2CC[C@H]1N2C/C=C/I [beta-CFT, (1R,2S,3S,5S)-methyl-3-(4-fluorophenyl)-8-((E)-3-iodoallyl)-8-azabicyclo[3.2.1]octane-2-carboxylate] | Positive
CC#CCn1c(N2CCC[C@@H](N)C2)nc2c1c(=O)n(Cc1nc(C)c3ccccc3n1)c(=O)n2C [Linagliptin, 8-(3-Amino-1-piperidinyl)-7-(2-butyn-1-yl)-3-methyl-1-[(4-methyl-2-quinazolinyl)methyl]-3,7-dihydro-1H-purine-2,6-dione] | Negative
CN(C)C(=O)Oc1cccc([N+](C)(C)C)c1 [Neostigmine, 3-[(Dimethylcarbamoyl)oxy]-N,N,N-trimethylanilinium] | Negative
CC(C)CCCCC(=O)N[C@@H](CCN)C(=O)N[C@H](C(=O)N[C@@H](CCN)C(=O)N[C@H]1CCNC(=O)[C@H]([C@@H](C)O)NC(=O)[C@H](CCN)NC(=O)[C@H](CCN)NC(=O)[C@H](CC(C)C)NC(=O)[C@@H](Cc2ccccc2)NC(=O)[C@H](CCN)NC1=O)[C@@H](C)O (racemic) [Polymyxin B2, rac-N-((R)-4-amino-1-(((2R,3S)-1-(((R)-4-amino-1-oxo-1-(((3R,6R,9R,12R,15S,18R,21R)-6,9,18-tris(2-aminoethyl)-15-benzyl-3-((S)-1-hydroxyethyl)-12-isobutyl-2,5,8,11,14,17,20-heptaoxo-1,4,7,10,13,16,19-heptaazacyclotricosan-21-yl)amino)butan-2-yl)amino)-3-hydroxy-1-oxobutan-2-yl)amino)-1-oxobutan-2-yl)-6-methylheptanamide] | Negative
C(=N\NC1=NCCN1)/c1c2ccccc2c(/C=N/NC2=NCCN2)c2ccccc12 [Bisantrene, N-[(E)-[10-[(E)-(4,5-dihydro-1H-imidazol-2-ylhydrazinylidene)methyl]anthracen-9-yl]methylideneamino]-4,5-dihydro-1H-imidazol-2-amine] | Efflux transporter substrate
COC(=O)c1cncn1[C@H](C)c1ccccc1 [Metomidate, (R)-methyl 1-(1-phenylethyl)-1H-imidazole-5-carboxylate] | Positive
CN1CCc2cc(Cl)c(O)cc2[C@@H](c2ccccc2)C1 [SCH-23390 hydrochloride, (R)-8-chloro-3-methyl-5-phenyl-2,3,4,5-tetrahydro1H-benzo[d]azepin-7-ol] | Positive
Cn1c2c(c3ccccc31)C[C@@]1(O)C3Cc4ccc(O)c5c4C1(CCN3CC1CC1)[C@H]2O5 (stereo partly drawn) [N-Methylnaltrinidole, (8aS,14bR)-7-(cyclopropylmethyl)-14-methyl-5,6,7,8,8a,9,14, 14b-octahydro-4,8-methanobenzofuro[2,3-a]pyrido [4,3-b]carbazole-1,8a-diol] | Positive
Cc1c(O)cccc1C(=O)N[C@@H](CSc1ccccc1)[C@H](O)CN1C[C@H]2CCCC[C@H]2C[C@H]1C(=O)NC(C)(C)C [Nelfinavir, (3S,4aS,8aS)-2-[(2R,3R)-2-Hydroxy-3-[(3-hydroxy-2-methylbenzoyl)amino]-4-(phenylsulfanyl)butyl]-N-(2-methyl-2-propanyl)decahydro3-isoquinolinecarboxamide] | Efflux transporter substrate
COC(=O)[C@H]1[C@@H](c2ccc(I)cc2)C[C@@H]2CC[C@H]1N2CCF [CIT-FE, (1R,2S,3S,5S)-methyl 8-(2-fluoroethyl)-3-(4-iodophenyl)-8-azabicyclo[3.2.1]octane-2-carboxylate] | Positive
Fc1ncccc1OCC1C=CCN1 (stereo not shown) [Nifene, 3-((2,5-dihydro-1H-pyrrol-2-yl)methoxy)-2-fluoropyridine] | Positive
C[C@]12CC[C@@H]3c4ccc(O)cc4C[C@@H](CCCCCCCCC[S+]([O-])CCCC(F)(F)C(F)(F)F)[C@H]3[C@@H]1CC[C@@H]2O (stereo partly drawn) [Fulvestrant, (7α,17β)-7-{9-[(4,4,5,5,5-Pentafluoropentyl)sulfinyl]nonyl}estra-1(10),2,4-triene-3,17-diol] | Negative
Teicoplanin | Negative
C#Cc1cccc(Nc2ncnc3cc(OCCOC)c(OCCOC)cc23)c1 [Erlotinib, N-(3-Ethynylphenyl)-6,7-bis(2-methoxyethoxy)-4-quinazolinamine] | Efflux transporter substrate
Cc1ccc(-c2cc(C(F)(F)F)nn2-c2ccc(S(N)(=O)=O)cc2)cc1 [Celecoxib, 4-[5-(4-Methylphenyl)-3-(trifluoromethyl)-1H-pyrazol-1-yl]benzenesulfonamide] | Negative
CNC(C)C(O)c1cccc(O)c1 (stereo not shown) [mHED, 3-[1-Hydroxy-2-(methylamino)propyl]phenol] | Negative
CNc1ccc(-c2nc3ccc(O)cc3s2)cc1 [6-OH-BTA-1 (PiB), 2-(4-(Methylamino)phenyl)benzo[d]thiazol-6-ol] | Positive
CCC(=O)NS(=O)(=O)c1ccc(-c2c(-c3ccccc3)noc2C)cc1 [Parecoxib, N-{[4-(5-Methyl-3-phenyl-1,2-oxazol4-yl)phenyl]sulfonyl}propanamide] | Negative
CCC(=O)OC1CCNCC1 [PMP, piperidin-4-yl propionate] | Positive

Compound | CNS status
COC(=O)N1CCN(C(=O)Cc2ccc(Cl)c(Cl)c2)[C@H](CN2CCCC2)C1 [GR89696, (R)-methyl 4-(2-(3,4-dichlorophenyl)acetyl)-3-(pyrrolidin-1-ylmethyl)piperazine-1-carboxylate] | Positive
C[C@@H](CN1CC(=O)NC(=O)C1)N1CC(=O)NC(=O)C1 (racemic) [Dexrazoxane, rac-(R)-4,4'-(propane-1,2-diyl)bis(piperazine-2,6-dione)] | Negative
COC(=O)c1cnc2n1CCc1ccccc1C2=C1CCN(CCc2ccc(OCc3ccc4ccccc4n3)cc2)CC1 [Laniquidar, methyl 11-(1-(4-(quinolin-2-ylmethoxy)phenethyl)piperidin-4-ylidene)-6,11-dihydro-5H-benzo[d]imidazo[1,2-a]azepine-3-carboxylate] | Efflux transporter substrate
CC(C)NCC(O)COc1cccc2[nH]c3ccccc3c12 (stereo not shown) [Carazolol, 1-((9H-carbazol-4-yl)oxy)-3-(isopropylamino)propan-2-ol] | Positive
CCC(C)n1ncn(-c2ccc(N3CCN(c4ccc(OC[C@H]5CO[C@](Cn6cncn6)(c6ccc(Cl)cc6Cl)O5)cc4)CC3)cc2)c1=O (stereo partly drawn) [Itraconazole, 2-sec-Butyl-4-{4-[4-(4-{[(2R,4S)-2-(2,4-dichlorophenyl)-2-(1H-1,2,4-triazol-1-ylmethyl)-1,3-dioxolan-4-yl]methoxy}phenyl)-1-piperazinyl]phenyl}-2,4-dihydro-3H-1,2,4-triazol-3-one] | Negative
CCC(C)CCCC(=O)N[C@H](CCN)C(=O)N[C@@H](C(=O)N[C@H](CCN)C(=O)N[C@@H]1CCNC(=O)[C@H]([C@H](C)O)NC(=O)[C@@H](CCN)NC(=O)[C@@H](CCN)NC(=O)[C@@H](CC(C)C)NC(=O)[C@H](CC(C)C)NC(=O)[C@@H](CCN)NC1=O)[C@H](C)O (mixture of isomers) [Colistin, rac-N-((R)-4-amino-1-(((2R,3S)-1-(((R)-4-amino-1-oxo-1-(((3S,6R,9R,12R,15S,18R,21R)-6,9,18-tris(2-aminoethyl)-3-((S)-1-hydroxyethyl)-12,15-diisobutyl-2,5,8,11,14,17,20-heptaoxo-1,4,7,10,13,16,19-heptaazacyclotricosan-21-yl)amino)butan-2-yl)amino)-3-hydroxy-1-oxobutan-2-yl)amino)-1-oxobutan-2-yl)-5-methylheptanamide] | Negative
CNc1ccc(-c2nc3ccc(O)cc3s2)cc1 [6-meO-BTA-0, 2-(4-(Methylamino)phenyl)benzo[d]thiazol-6-ol] | Negative
Cc1ccc(C(=O)c2cc(O)c(O)c([N+](=O)[O-])c2)cc1 [Tolcapone, (3,4-dihydroxy-5-nitrophenyl)(p-tolyl)methanone] | Negative
COc1ccc(C2CNC(=O)C2)cc1OC1CCCC1 (stereo not shown) [Rolipram, 4-(3-(Cyclopentyloxy)-4-methoxyphenyl)pyrrolidin-2-one] | Positive
CCCC(=O)OC1CCN(C)CC1 [BMP, 1-methylpiperidin-4-yl butyrate] | Positive
Cc1nccn1CC1CCc2c(c3ccccc3n2C)C1=O (stereo not shown) [Ondansetron, 9-Methyl-3-[(2-methyl-1H-imidazol-1-yl)methyl]-1,2,3,9-tetrahydro-4H-carbazol-4-one] | Efflux transporter substrate
O=C(c1ccc(F)cc1)C1CCN(CCn2c(=S)[nH]c3ccccc3c2=O)CC1 [Altanserin, 3-[2-[4-(4-fluorobenzoyl)piperidin-1-yl]ethyl]-2-sulfanylidene-1H-quinazolin-4-one] | Positive
CNCC(O)CCN1c2ccccc2N(c2ccccc2)S1(=O)=O (stereo not shown) [Me@HAPTHI, 4-(2,2-Dioxido-3-phenyl-2,1,3-benzothiadiazol-1(3H)-yl)-1-(methylamino)-2-butanol] | Negative
Cc1nc2n(c(=O)c1CCN1CCC(C(=O)c3ccc(F)cc3)CC1)CCS2 [Setoperone, 6-(2-(4-(4-Fluorobenzoyl)piperidin-1-yl)ethyl)-7-methyl-2H-thiazolo[3,2-a]pyrimidin-5(3H)-one] | Positive
COC(=O)[C@H](c1ccccc1)[C@H]1CCCCN1 (racemic) [Ritalin, rac-methyl (R)-2-phenyl-2-((R)-piperidin-2-yl)acetate] | Positive
O=[N+]([O-])c1nccn1CC(O)CF (stereo not shown) [Fluoromisonidazole (FMISO), 1-Fluoro-3-(2-nitro-1H-imidazol-1-yl)propan-2-ol] | Positive
CC[C@H]1OC(=O)[C@H](C)[C@@H](O[C@H]2C[C@@](C)(OC)[C@@H](O)[C@H](C)O2)[C@H](C)[C@@H](O[C@@H]2O[C@H](C)C[C@H](N(C)C)[C@H]2O)[C@](C)(O)C[C@@H](C)/C(=N\OCOCCOC)[C@H](C)[C@@H](O)[C@]1(C)O [Roxithromycin] | Negative
COC(=O)[C@H]1[C@@H](c2ccc(I)cc2)C[C@@H]2CC[C@H]1N2C [beta-CIT, (1R,2S,3S,5S)-methyl-3-(4-iodophenyl)-8-methyl-8-azabicyclo [3.2.1]octane-2-carboxylate] | Positive
